Source: article PMC8282797, “Strictly regulated agonist-dependent activation of AMPA-R is the key characteristic of TAK-653 for robust synaptic responses and cognitive improvement” (Scientific Reports, 2021)
Where two headings read alike, the source gives them in different places.

System: AMPA-R
Assay: Whole-cell patch clamp recording using rat primary hippocampal neurons
Type: cell-based
Set-up: key to Single effect on AMPA-R currents: -: No effect or slight effect; +: Potent; ++: Very potent
Details: for Single effect on AMPA-R currents: summary grade
Experimental: Whole-cell patch clamp recording using primary neurons between 11 and 20 days in vitro was performed as previously described. Patch electrodes with tip resistances ranging from 3 to 5 MΩ were filled with an intracellular solution containing: 135 mM CsCl, 1 mM MgCl2, 10 mM HEPES, 10 mM EGTA, 4 mM MgATP, and 0.3 mM Na2GTP, adjusted to pH7.3 with CsOH (osmolality 275–295 mosm/L). The extracellular solution contained: 140 mM NaCl, 4 mM KCl, 2 mM CaCl2, 1 mM MgCl2, 10 mM HEPES, 5 mM NaHCO3, 10 mM D( +)-glucose, and 0.001 mM TTX, adjusted to pH7.4 with NaOH (osmolality 300–315 mosm/L). All experiments were carried out at room temperature. Neurons were voltage-clamped at − 80 mV. Steady-state inward currents were evoked by the application of AMPA and AMPA potentiator via Y-tube perfusion system. Signals were recorded using a Multiclamp 700B amplifier (Molecular Devices, LLC, Orleans Drive Sunnyvale, CA), digitized using a Digidata 1440A interface board, filtered between 2 kHz, sampled at 10 kHz, and analyzed with pClamp10 software. Details are described in the Supplementary Information.
Whole-cell patch clamp technique was used for recording current from cultured rat hippocampal neurons between 11-20 days in vitro. Patch electrodes with tip resistances ranging from 3 to 5 MΩ were filled with an intracellular solution containing: 135 mM CsCl, 1 mM MgCl2, 10 mM HEPES, 10 mM EGTA, 4 mM Mg-ATP, 0.3 mM Na2-GTP, adjusted to pH7.3 with CsOH (osmolality 275-295 mosm/L). The extracellular solution contained: 140 mM NaCl, 4 mM KCl, 2 mM CaCl2, 1 mM MgCl2, 10 mM HEPES, 5 mM NaHCO3, 10 mM D(+)-glucose, and 0.001 mM TTX, adjusted to pH7.4 with NaOH (osmolality 300-315 mosm/L). All experiments were carried out at room temperature and performed using an Axopatch-1D amplifier with pCLAMP 9 software (Molecular Devices, LLC, Orleans Drive Sunnyvale, CA), low-pass filtered at 2 kHz, and stored on the computer hard-disk for off-line analysis. Neurons were voltage-clamped at –80mV. Steady-state inward currents were evoked by the application of AMPA and AMPA potentiator via Y-tube perfusion system. AMPA-R potentiator was applied 20 s prior to 10-s AMPA stimulus. The current at all drug concentrations tested was normalized by the steady-state current induced by 1 μM AMPA. In the absence of AMPA, the maximum current during 60-s application of AMPA-R potentiator was normalized by the steady-state current induced by 100 μM AMPA.

SMILES	EC50 (single application, read-out: EC50, increase of AMPA-R-mediated currents) [µM]	Single effect on AMPA-R currents	Potency relative to LY451646 in potentiation of AMPA-elicited currents (times less potent) [times]	AMPA-R currents, Agonistic effect @30 μM (absence of AMPA, % of AMPA (100 μM)-induced steady-state response) [%]	EC50 (in the presence of 1 μM AMPA, read-out: AMPA-R currents, Potentiation EC50) [µM]
Cc1onc(O)c1CC(N)C(=O)O (stereo not drawn) [AMPA, alpha-amino-3-hydroxy-5-methyl-4-isoxazole-propionic acid]	45	++	–	–	–
CC1=CN2CCS(=O)(=O)N=C2C(c2ccc(OC3CCCCC3)cc2)=N1 [TAK-653, 9-[4-(Cyclohexyloxy)phenyl]-7-methyl-3,4-dihydropyrazino[2,1-c][1,2,4]thiadiazine 2,2-dioxide]	–	─	2.3	1.7	4.4
